Data set [1] relates to THP-1. The data set can be described thus: Cytotoxicity against human THP1 cells at 20 uM by MTT assay. The class given is functional, cell-based. For orientation: Tetrazolium assays rely on reduction of a dye to a coloured formazan, in cell work by metabolically active cells.
Data set [2] can be described thus: Inhibition of NF-kappaB-mediated transcriptional activity transfected in PMA-stimulated HEK293 cells after 24 hrs by luciferase reporter gene assay. The class given is cell-based. To be noted: HEK293, 24 h. (In general: A reporter such as luciferase makes a cellular process visible.)
Data set [3] concerns HEK293. The data set can be described thus: Inhibition of MMP9 gene transcription in PMA-stimulated HEK293 cells after 24 hrs by luciferase reporter gene assay. The class given is functional, cell-based. To be noted: Homo sapiens, HEK293, 24 h.
The subject of data set [4] is HEK293. The data set can be described thus: Cytotoxicity against HEK293 cells at 20 uM by MTT assay. The format is cell-based. To be noted: human, hek293, 20 µM.
In data set [5] the test system is THP-1. The data set can be described thus: Inhibition of MMP9 secretion in PMA-stimulated human THP1 cells at 20 uM. The format is functional, cell-based.

Calls of active or inactive are those of the source. No cut-off for these calls is given here.

Activity and IC50 data for six molecules are collected here from ChEMBL document CHEMBL1153356, “Inhibition of NF-kB and metalloproteinase-9 expression and secretion by parthenolide derivatives” (Bioorg Med Chem Lett, 2009).

Usually IC50 stands for the midpoint of a concentration-inhibition curve. Read a high IC50 as weaker potency in that assay. For the molecule `C=C1C(=O)O[C@H]2[C@@H]3[C@@H](CC[C@@]3(C)O)C(=C)CC[C@@H]12`, the figures for the Activity entry in the data set with THP-1 [1] and in the data set with HEK293 [4] were “Not toxic” and “Non-toxic”, respectively. In addition, the IC50 in data set [2] worked out at 8.8 µM; with HEK293 [3], 6.6 µM. Further, the result in the data set on THP-1 [5] was Active.

Take `C=C1C(=O)O[C@H]2[C@@H]3[C@@H](CC[C@@]3(C)O)[C@](C)(OC)CC[C@@H]12`: the results for the Activity result in the data set on THP-1 [1] and with HEK293 [4] were “Not toxic” and “Non-toxic”, respectively. Further, the values for the IC50 (in data set [2]; with HEK293 [3]) were 6 µM and 8.6 µM, respectively. Besides, the outcome in the data set with THP-1 [5] was Active.

Turning to `C=C1C(=O)O[C@@H]2[C@@H](O)[C@]3(C)CC[C@H]3[C@](C)(O)CC[C@@H]12`, the figures for the Activity entry in the data set on THP-1 [1] and in the data set on HEK293 [4] were “Not toxic” and “Non-toxic”, respectively. Moreover, the IC50 in data set [2] was found to be 2.8 µM; in the data set with HEK293 [3], 3.8 µM.

Take `C=C1C(=O)O[C@H]2[C@H]1CC/C(C)=C\CC[C@@]1(C)O[C@@H]21`: the Activity entry in the data set with THP-1 [1] was “Not toxic”; with HEK293 [4], “Non-toxic”. Besides, the results for the IC50 (in data set [2]; in the data set on HEK293 [3]) were 7.4 µM and 8.5 µM, respectively. For the same molecule, the result in the data set with THP-1 [5] was Active.

As for `C=C1C(=O)O[C@@H]2C3O[C@]3(C)CC/C=C(\C)CC[C@@H]12` (stereo partly drawn), the Activity result in the data set with THP-1 [1] is “Not toxic”; in the data set with HEK293 [4], “Non-toxic”. Also, the IC50 in data set [2] was 9.76 µM; in the data set on HEK293 [3], 6.6 µM. Further, the result in the data set with THP-1 [5] was Active.

Turning to `C=C1C(=O)O[C@@H]2[C@@H](O)[C@]3(C)CC[C@H]3[C@](C)(OC)CC[C@@H]12`, the figures for the Activity result in the data set with THP-1 [1] and with HEK293 [4] were “Not toxic” and “Non-toxic”, respectively. Besides, the IC50 in data set [2] worked out at 2.04 µM; in the data set on HEK293 [3], 3.2 µM.
